Measurements: US20130171098A1, “Cyclopropyl Fused Indolobenzazepine HCV NS5B Inhibitors” (priority 2006, published 2013)
Where two headings read alike, the source gives them in different places.

How the values were obtained:
[1] = target: T1, HCV NS5B RdRp genotype 1b (Hepatitis C virus genotype 1b, UniProt Q9WMX2); assay: HCV NS5B RdRp enzyme assay (standard / modified); format: biochemical
T1 construct: The protein was expressed with an 18 amino acid C-terminal truncation to enhance the solubility; made in house; host or cells: E. coli BL21(DE3), pET21a vector
Protocol: HCV NS5B RdRp Cloning, Expression, and Purification.
The cDNA encoding the NS5B protein of HCV, genotype 1b, was cloned into the pET21a expression vector. The protein was expressed with an 18 amino acid C-terminal truncation to enhance the solubility. The E. coli competent cell line BL21(DE3) was used for expression of the protein. Cultures were grown at 37° C. for ˜4 hours until the cultures reached an optical density of 2.0 at 600 nm. The cultures were cooled to 20° C. and induced with 1 mM IPTG. Fresh ampicillin was added to a final concentration of 50 μg/ml and the cells were grown overnight at 20° C.
The lysis buffer consisted of 20 mM Tris-HCl, pH 7.4, 500 mM NaCl, 0.5% triton X-100, 1 mM DTT, 1 mM EDTA, 20% glycerol, 0.5 mg/ml lysozyme, 10 mM MgCl2, 15 ug/ml deoxyribonuclease I, and Complete TM protease inhibitor tablets (Roche). After addition of the lysis buffer, frozen cell pellets were resuspended using a tissue homogenizer. To reduce the viscosity of the sample, aliquots of the lysate were sonicated on ice using a microtip attached to a Branson sonicator. The sonicated lysate was centrifuged at 100,000×g for 1 hr at 4° C. and filtered through a 0.2 μm filter unit (Corning).
The protein was purified using two sequential chromatography steps: Heparin sepharose CL-6B and polyU sepharose 4B (Pharmacia). The chromatography buffers were identical to the lysis buffer but contained no lysozyme, deoxyribonuclease I, MgCl2 or protease inhibitor and the NaCl concentration of the buffer was adjusted according to the requirements for charging the protein onto the column. Each column was eluted with a NaCl gradient which varied in length from 5-50 column volumes depending on the column type. […] The enzyme was aliquoted and stored at −80° C.
Standard HCV NS5B RdRp Enzyme Assay.
HCV RdRp genotype 1b assays were run in a final volume of 60 μl in 96 well plates (Corning 3600). The assay buffer is composed of 20 mM Hepes, pH 7.5, 2.5 mM KCl, 2.5 mM MgCl2, 1 mM DTT, 1.6 U RNAse inhibitor (Promega N2515), 0.01 mg/ml BSA (Sigma B6917), and 2% glycerol. All compounds were serially diluted (3-fold) in DMSO and diluted further in water such that the final concentration of DMSO in the assay was 2%. HCV RdRp genotype 1b enzyme was used at a final concentration of 28 nM. A polyA template was used at 6 nM, and a biotinylated oligo-dT12 primer was used at 180 nM final concentration. Template was obtained commercially (Amersham 27-4110). Biotinylated primer was prepared by Sigma Genosys. 3H-UTP was used at 0.6 μCi (0.29 μM total UTP). Reactions were initiated by the addition of enzyme, incubated at 30° C. for 60 min, and stopped by adding 25 μl of 50 mM EDTA containing SPA beads (4 μg/μl, Amersham RPNQ 0007). Plates were read on a Packard Top Count NXT after >1 hr incubation at room temperature.
Modified HCV NS5B RdRp Enzyme Assay.
A modified enzyme assay was performed essentially as described for the standard enzyme assay except for the following: The biotinylated oligo dT12 primer was precaptured on streptavidin-coated SPA beads by mixing primer and beads in assay buffer and incubating at room temperature for one hour. Unbound primer was removed after centrifugation. The primer-bound beads were resuspended in 20 mM Hepes buffer, pH 7.5 and used in the assay at final concentrations of 20 nM primer and 0.67 μg/μl beads. Order of addition in the assay: enzyme (1.75 nM) was added to diluted compound followed by the addition of a mixture of template (0.36 nM), 3H-UTP (0.6 μCi, 0.29 μM), and primer-bound beads, to initiate the reaction; concentrations given are final. Reactions were allowed to proceed for 4 hours at 30° C.
IC50 values for compounds were determined using seven different [I].

HCV replicon cells = assay: HCV replicon FRET / luciferase assay; format: cell-based, Hepatitis C virus
Protocol: The HCV FRET screening assay was performed in 96-well cell culture plates. The FRET peptide (Anaspec, Inc.) (Taliani et al., Anal. Biochem. 1996, 240, 60-67) contains a fluorescence donor, EDANS, near one end of the peptide and an acceptor, DABCYL, near the other end. The fluorescence of the peptide is quenched by […] resonance energy transfer (RET) between the donor and the acceptor, but as the NS3 protease cleaves the peptide the products are released from RET quenching and the fluorescence of the donor becomes apparent. The assay reagent was made as follows: 5× cell Luciferase cell culture lysis reagent from Promega (#E153A) diluted to 1× with dH2O, NaCl added to 150 mM final, the FRET peptide diluted to 20 μM final from a 2 mM stock.
To prepare plates, HCV replicon cells, with or without a Renilla luciferase reporter gene, were trypsinized and plated in a 96-well plate with titrated test compounds added in columns 3 through 12; columns 1 and 2 contained a control compound (HCV control inhibitor), and the bottom row contained cells with DMSO only. The plates were then placed in a CO2 incubator at 37° C.
Subsequent to addition of the test compounds described above (FRET Assay Preparation), at various times the plate was removed and Alamar blue solution (Trek Diagnostics, #00-100) was added to measure cellular toxicity. After reading in a Cytoflour 4000 instrument (PE Biosystems), plates were rinsed with PBS and then used for FRET assay by the addition of 30 ul of the FRET peptide assay reagent described above (FRET Assay Preparation) per well. The plate was then placed into the Cytoflour 4000 instrument which had been set to 340 excite/490 emission, automatic mode for up to 20 cycles and the plate read in a kinetic mode. Typically, the signal to noise using an endpoint analysis after the reads was at least three-fold. Alternatively, after Alamar blue reading, plates were rinsed with PBS, then used for luciferase assay using the Promega Dual-Glo Luciferase Assay System or the Promega EnduRen Live Cell Substrate assay.
Compound analysis was performed by quantification of the relative HCV replicon inhibition and the relative cytotoxicity values. To calculate cytoxicity values, the average Alamar Blue fluorescence signals from the control wells were set as 100% non-toxic. The individual signals in each of the compound test wells were then divided by the average control signal and multiplied by 100% to determine […]. To calculate the HCV replicon inhibition values, an average background value was obtained from the two wells containing the highest amount of HCV control inhibitor at the end of the assay period. These numbers were similar to those obtained from naïve Huh-7 cells. The background numbers were then subtracted from the average signal obtained from the control wells and this number was used as 100% activity. The individual signals in each of the compound test wells were then divided by the averaged control values after background subtraction and multiplied by 100% to determine percent activity. […] The two numbers generated for the compound plate, percent cytoxicity and percent activity, were used to determine compounds of interest for further analysis.

[2] = HCV NS5B RdRp genotype 1b enzyme
[3] = HCV replicon cells, FRET or luciferase activity

T1 sequence (Q9WMX2 2420-2992): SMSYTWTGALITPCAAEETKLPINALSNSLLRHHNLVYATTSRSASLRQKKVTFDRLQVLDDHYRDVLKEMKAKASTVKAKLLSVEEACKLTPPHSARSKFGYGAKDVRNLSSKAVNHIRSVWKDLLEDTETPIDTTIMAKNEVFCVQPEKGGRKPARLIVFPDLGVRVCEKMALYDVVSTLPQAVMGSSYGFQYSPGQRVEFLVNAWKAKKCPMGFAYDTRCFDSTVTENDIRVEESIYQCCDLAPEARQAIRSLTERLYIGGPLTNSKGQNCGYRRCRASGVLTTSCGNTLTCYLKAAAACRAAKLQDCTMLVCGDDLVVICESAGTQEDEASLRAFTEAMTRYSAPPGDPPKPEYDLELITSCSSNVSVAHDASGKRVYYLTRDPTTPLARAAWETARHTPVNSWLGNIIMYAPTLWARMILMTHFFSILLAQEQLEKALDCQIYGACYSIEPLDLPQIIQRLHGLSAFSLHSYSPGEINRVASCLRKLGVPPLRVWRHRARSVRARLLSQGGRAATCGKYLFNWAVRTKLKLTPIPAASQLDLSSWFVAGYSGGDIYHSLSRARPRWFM

Compound	IC50 [1, 2] [nM]	EC50 (HCV replicon cells; [3]) [nM]	IC50 [1] [nM]	EC50 (HCV replicon cells; Hepatitis C virus) [nM]
CNS(=O)(=O)NC(=O)c1ccc2c(C3CCCCC3)c3n(c2c1)CC1(C(=O)N2C4CCC2CN(C)C4)CC1c1cc(OC)ccc1-3 (stereo not shown) [drawing 50]	1 to 500	1 to 500		
COc1ccc2c(c1)C1CC1(C(=O)N1C3CCC1CN(C)C3)Cn1c-2c(C2CCCCC2)c2ccc(C(=O)NS(=O)(=O)N3CCN(C)CC3)cc21 (stereo not shown) [drawing 32]			1 to 500	1 to 500
COc1ccc2c(c1)C1CC1(C(=O)N1[C@@H]3CC[C@H]1CN(Cc1ccccc1)C3)Cn1c-2c(C2CCCCC2)c2ccc(C(=O)NS(=O)(=O)N(C)C)cc21 (stereo partly shown)			1 to 500	1 to 500
COc1ccc2c(c1)C1CC1(C(=O)N1[C@@H]3CC[C@H]1CN(C(=O)N(C)C)C3)Cn1c-2c(C2CCCCC2)c2ccc(C(=O)NS(=O)(=O)N(C)C)cc21 (stereo partly shown)			1 to 500	1 to 500
CN1CC2CCC(C1)N2C(=O)C12CC1c1cc(O)ccc1-c1c(C3CCCCC3)c3ccc(C(=O)NS(=O)(=O)N(C)C)cc3n1C2 (stereo not shown) [drawing 44]			1 to 500	1 to 500
COc1ccc2c(c1)C1CC1(C(=O)N1C3CCC1CN(C(C)C)C3)Cn1c-2c(C2CCCCC2)c2ccc(C(=O)NS(=O)(=O)N(C)C)cc21 (stereo not shown) [drawing 62]	1 to 500	1 to 500		
CNS(=O)(=O)NC(=O)c1ccc2c(C3CCCCC3)c3n(c2c1)CC1(C(=O)N2[C@@H]4CC[C@H]2CN(C)C4)CC1c1cc(OC)ccc1-3 (stereo partly shown) [drawing 56]	1 to 500	1 to 500		
COc1ccc2c(c1)C1CC1(C(=O)N1[C@@H]3CC[C@H]1CN(C(=O)OCc1ccccc1)C3)Cn1c-2c(C2CCCCC2)c2ccc(C(=O)NS(=O)(=O)N(C)C)cc21 (stereo partly shown)			1 to 500	1 to 500
COc1ccc2c(c1)C1CC1(C(=O)N1C3CCC1CN(C)C3)Cn1c-2c(C2CCCCC2)c2ccc(C(=O)NS(=O)(=O)N3CCCCC3)cc21 (stereo not shown) [drawing 95]			1 to 500	1 to 500
CN1CC2CCC(C1)N2C(=O)C12CC1c1c(OC(F)(F)F)cccc1-c1c(C3CCCCC3)c3ccc(C(=O)O)cc3n1C2 (stereo not shown)			1 to 500	1 to 500
CCCCS(=O)(=O)NC(=O)c1ccc2c(C3CCCCC3)c3n(c2c1)CC1(C(=O)N2C4CCC2CN(C)C4)CC1c1cc(OC)ccc1-3 (stereo not shown)			1 to 500	1 to 500
COc1ccc2c(c1)C1CC1(C(=O)N1C3CCC1CN(C(C)C)C3)Cn1c-2c(C2CCCCC2)c2ccc(C(=O)NS(=O)(=O)N(C)C)cc21 (stereo not shown) [drawing 37]			1 to 500	1 to 500
COc1ccc2c(c1)C1CC1(C(=O)N1C3CCC1CN(C)C3)Cn1c-2c(C2CCCCC2)c2ccc(C(=O)NS(=O)(=O)N(C)C(C)C)cc21 (stereo not shown) [drawing 98]			1 to 500	1 to 500
COc1ccc2c(c1)C1CC1(C(=O)N1C3CCC1CN(C)C3)Cn1c-2c(C2CCCCC2)c2ccc(C(=O)NS(=O)(=O)N(C)C(C)C)cc21 (stereo not shown) [drawing 111]	1 to 500	1 to 500		
COc1cccc2c1C1CC1(C(=O)N1C3CCC1CN(C)C3)Cn1c-2c(C2CCCCC2)c2ccc(C(=O)NS(=O)(=O)N(C)C)cc21 (stereo not shown)			1 to 500	> 500
COc1ccc2c(c1)C1CC1(C(=O)N1CC3CCC(C1)N3C(C)C)Cn1c-2c(C2CCCCC2)c2ccc(C(=O)NS(=O)(=O)N(C)C)cc21 (stereo not shown)			< 20	1 to 500
COc1ccc2c(c1)C1CC1(C(=O)N1C3CCC1CN(C)C3)Cn1c-2c(C2CCCCC2)c2ccc(C(=O)NS(C)(=O)=O)cc21 (stereo not shown) [drawing 114]	1 to 500	1 to 500		
CN1CC2CCC(C1)N2C(=O)C12CC1c1cc(OCc3ccccc3)ccc1-c1c(C3CCCCC3)c3ccc(C(=O)NS(=O)(=O)N(C)C)cc3n1C2 (stereo not shown) [drawing 43]			1 to 500	1 to 500
COc1ccc2c(c1)[C@@H]1C[C@]1(C(=O)N1[C@@H]3CC[C@H]1CN(C(=O)N(C)C)C3)Cn1c-2c(C2CCCCC2)c2ccc(C(=O)NS(=O)(=O)N(C)C)cc21			1 to 500	1 to 500
COc1ccc2c(c1)C1CC1(C(=O)N1C3CCC1CN(C)C3)Cn1c-2c(C2CCCCC2)c2ccc(C(=O)NS(=O)(=O)N3CCOCC3)cc21 (stereo not shown) [drawing 53]	1 to 500	1 to 500		
